Source: ChEMBL document CHEMBL1909046, “DrugMatrix in vitro pharmacology data”

Key:
[1] = DRUGMATRIX: Calcium Channel Type L, Benzothiazepine radioligand binding (ligand: [3H] Diltiazem); format: cell membranes, Rattus norvegicus, Wistar, Brain, Membrane; conditions: Not Active = under 50% inhibition at 10 µM
Carbonic anhydrase 2 = Carbonic anhydrase 2 (Homo sapiens, UniProt P00918); assay: DRUGMATRIX: Carbonic Anhydrase II enzyme inhibition (substrate: 4-Nitrophenyl acetate (4-NPA)); format: tissue-based, Erythrocyte; conditions: erythrocyte; Not Active = under 50% inhibition at 10 µM
[2] = DRUGMATRIX: GABAA, Flunitrazepam, Central radioligand binding (ligand: [3H] Flunitrazepam); format: cell membranes, Rattus norvegicus, Wistar, Brain, Membrane; conditions: Not Active = under 50% inhibition at 10 µM
[3] = molecular target: T1, Muscarinic acetylcholine receptor M2 (Homo sapiens, UniProt P08172); format: cell membranes, CHO-K1, Membrane; conditions: cho-k1; note: in other assays of this panel Not Active means under 50% inhibition at 10 µM
T1 sequence (P08172 whole entry): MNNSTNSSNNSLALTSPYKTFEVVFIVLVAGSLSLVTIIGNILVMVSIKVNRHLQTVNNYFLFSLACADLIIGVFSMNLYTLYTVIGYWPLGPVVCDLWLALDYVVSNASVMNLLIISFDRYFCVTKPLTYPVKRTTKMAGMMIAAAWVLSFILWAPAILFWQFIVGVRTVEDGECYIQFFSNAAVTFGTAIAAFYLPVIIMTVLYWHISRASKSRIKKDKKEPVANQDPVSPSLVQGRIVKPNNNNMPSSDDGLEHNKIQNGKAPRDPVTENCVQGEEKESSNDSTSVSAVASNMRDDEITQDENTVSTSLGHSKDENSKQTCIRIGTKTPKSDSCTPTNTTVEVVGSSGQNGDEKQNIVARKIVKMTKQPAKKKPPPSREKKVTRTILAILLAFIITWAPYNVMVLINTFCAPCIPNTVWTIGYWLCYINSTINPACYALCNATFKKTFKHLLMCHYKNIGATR

[4] = molecular target: Matrix metalloproteinase-9 (Homo sapiens, UniProt P14780); assay: biochemical; format: cell-based;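 note: inhibition of isolated MMP-9 enzyme activity toward a synthetic peptide substrate, from the DrugMatrix protease screening panel; in other assays of this panel Not Active means under 50% inhibition at 10 µM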
Chain of Matrix metalloproteinase-9 (P14780 whole entry): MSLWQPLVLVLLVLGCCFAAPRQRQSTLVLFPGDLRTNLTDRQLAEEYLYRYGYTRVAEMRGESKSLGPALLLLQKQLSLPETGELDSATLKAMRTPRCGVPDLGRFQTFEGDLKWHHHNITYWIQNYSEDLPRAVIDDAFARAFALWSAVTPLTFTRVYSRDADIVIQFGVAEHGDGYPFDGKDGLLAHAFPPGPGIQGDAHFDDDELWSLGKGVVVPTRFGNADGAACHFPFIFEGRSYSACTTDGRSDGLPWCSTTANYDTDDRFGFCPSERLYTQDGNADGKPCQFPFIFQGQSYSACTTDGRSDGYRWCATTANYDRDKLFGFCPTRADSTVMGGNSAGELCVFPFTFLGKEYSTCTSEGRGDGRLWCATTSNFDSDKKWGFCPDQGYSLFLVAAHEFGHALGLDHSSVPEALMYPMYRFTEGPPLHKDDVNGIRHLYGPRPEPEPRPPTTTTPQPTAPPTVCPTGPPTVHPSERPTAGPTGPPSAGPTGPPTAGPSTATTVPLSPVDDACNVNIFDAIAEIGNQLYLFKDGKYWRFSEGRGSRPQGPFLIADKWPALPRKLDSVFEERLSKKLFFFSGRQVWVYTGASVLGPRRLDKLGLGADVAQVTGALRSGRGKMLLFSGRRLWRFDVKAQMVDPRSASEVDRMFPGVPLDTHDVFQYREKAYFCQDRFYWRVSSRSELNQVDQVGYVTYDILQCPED

Cytochrome P450 2A6 = molecular target: T2, Cytochrome P450 2A6 (Homo sapiens, UniProt P11509); conditions: bti-tn-5b1-4; note: in other assays of this panel Not Active means under 50% inhibition at 10 µM
T2 sequence (P11509 whole entry): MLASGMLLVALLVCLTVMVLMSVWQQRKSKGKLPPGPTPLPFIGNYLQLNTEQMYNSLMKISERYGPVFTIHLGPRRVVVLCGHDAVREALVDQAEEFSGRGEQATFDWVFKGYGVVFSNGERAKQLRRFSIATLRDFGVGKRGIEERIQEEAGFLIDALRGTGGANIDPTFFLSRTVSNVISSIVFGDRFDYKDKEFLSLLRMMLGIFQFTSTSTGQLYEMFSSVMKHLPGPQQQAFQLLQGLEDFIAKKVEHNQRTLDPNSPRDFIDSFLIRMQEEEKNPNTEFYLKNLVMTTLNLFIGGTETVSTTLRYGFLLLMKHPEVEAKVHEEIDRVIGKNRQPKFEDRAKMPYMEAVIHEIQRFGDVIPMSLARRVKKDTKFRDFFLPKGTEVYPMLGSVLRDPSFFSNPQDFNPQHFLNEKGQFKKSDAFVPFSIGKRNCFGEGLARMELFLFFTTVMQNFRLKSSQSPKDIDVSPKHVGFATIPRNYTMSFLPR

Cytochrome P450 2D6 = Cytochrome P450 2D6 (Homo sapiens, UniProt P10635); conditions: bti-tn-5b1-4; note: in other assays of this panel Not Active means under 50% inhibition at 10 µM
Chain of Cytochrome P450 2D6 (P10635 whole entry): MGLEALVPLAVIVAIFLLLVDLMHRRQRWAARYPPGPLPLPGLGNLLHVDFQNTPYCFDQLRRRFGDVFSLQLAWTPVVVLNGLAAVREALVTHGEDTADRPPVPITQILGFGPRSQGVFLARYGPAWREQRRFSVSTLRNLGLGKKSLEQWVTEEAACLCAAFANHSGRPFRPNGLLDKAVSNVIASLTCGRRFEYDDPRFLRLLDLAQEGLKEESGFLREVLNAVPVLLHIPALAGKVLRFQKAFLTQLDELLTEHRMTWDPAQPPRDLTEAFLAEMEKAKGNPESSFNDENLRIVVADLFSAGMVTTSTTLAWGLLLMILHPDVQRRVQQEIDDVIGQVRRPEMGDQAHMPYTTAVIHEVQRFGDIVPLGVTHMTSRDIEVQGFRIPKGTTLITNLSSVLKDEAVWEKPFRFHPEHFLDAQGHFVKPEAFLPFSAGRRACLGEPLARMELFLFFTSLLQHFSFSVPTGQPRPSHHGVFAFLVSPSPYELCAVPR

Glucocorticoid receptor = molecular target: T3, Glucocorticoid receptor (Homo sapiens, UniProt P04150); conditions: hela s3; note: in other assays of this panel Not Active means under 50% inhibition at 10 µM
T3 sequence (P04150 whole entry): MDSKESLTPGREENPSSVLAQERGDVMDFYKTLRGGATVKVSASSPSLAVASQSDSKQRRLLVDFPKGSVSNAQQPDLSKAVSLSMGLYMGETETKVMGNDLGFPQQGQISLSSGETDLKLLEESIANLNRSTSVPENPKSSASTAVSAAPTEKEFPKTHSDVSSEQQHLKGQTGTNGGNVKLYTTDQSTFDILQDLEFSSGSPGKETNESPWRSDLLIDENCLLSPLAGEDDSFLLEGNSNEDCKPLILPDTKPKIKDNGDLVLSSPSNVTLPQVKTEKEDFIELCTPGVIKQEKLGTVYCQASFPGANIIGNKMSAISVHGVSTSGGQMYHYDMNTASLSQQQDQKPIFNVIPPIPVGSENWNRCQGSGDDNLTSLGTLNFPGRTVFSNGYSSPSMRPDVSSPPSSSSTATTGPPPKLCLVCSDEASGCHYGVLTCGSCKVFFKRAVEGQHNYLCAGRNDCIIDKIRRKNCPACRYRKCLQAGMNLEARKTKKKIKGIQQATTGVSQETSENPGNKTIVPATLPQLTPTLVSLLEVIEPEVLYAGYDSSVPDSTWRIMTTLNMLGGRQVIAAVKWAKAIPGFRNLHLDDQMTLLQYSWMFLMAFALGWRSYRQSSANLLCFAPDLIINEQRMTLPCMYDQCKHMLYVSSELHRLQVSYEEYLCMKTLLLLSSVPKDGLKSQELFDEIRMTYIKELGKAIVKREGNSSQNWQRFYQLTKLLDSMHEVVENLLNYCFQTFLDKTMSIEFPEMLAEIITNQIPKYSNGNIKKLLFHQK

Estrogen receptor = molecular target: T4, Estrogen receptor (Homo sapiens, UniProt P03372); conditions: sf9; note: in other assays of this panel Not Active means under 50% inhibition at 10 µM
T4 sequence (P03372 whole entry): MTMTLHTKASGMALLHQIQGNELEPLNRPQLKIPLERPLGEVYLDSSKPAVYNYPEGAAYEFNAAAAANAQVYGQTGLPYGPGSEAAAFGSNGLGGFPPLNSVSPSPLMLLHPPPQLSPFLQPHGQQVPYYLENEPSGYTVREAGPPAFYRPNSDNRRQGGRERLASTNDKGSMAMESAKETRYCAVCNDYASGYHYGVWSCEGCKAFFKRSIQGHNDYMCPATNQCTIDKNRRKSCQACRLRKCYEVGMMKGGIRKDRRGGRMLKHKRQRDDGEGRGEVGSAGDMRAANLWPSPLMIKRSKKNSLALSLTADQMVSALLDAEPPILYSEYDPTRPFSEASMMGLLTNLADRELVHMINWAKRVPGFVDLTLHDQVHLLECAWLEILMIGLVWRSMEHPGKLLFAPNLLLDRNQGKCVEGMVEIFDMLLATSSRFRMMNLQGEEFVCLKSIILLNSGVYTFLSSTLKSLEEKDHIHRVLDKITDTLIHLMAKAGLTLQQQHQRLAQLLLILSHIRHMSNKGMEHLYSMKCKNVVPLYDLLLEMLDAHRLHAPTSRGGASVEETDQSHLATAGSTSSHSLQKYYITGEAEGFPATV

SMILES	IC50 [1]	Ki [1]	IC50 (Carbonic anhydrase 2)	IC50 [2]	Ki [2]	IC50 [3]	IC50 [4]	IC50 (Cytochrome P450 2A6)	Ki (Cytochrome P450 2A6)	IC50 (Cytochrome P450 2D6)	Ki (Cytochrome P450 2D6)	IC50 (Glucocorticoid receptor)	IC50 (Estrogen receptor)	IC50 ([1]; read-out: IC50) [µM]	Ki ([1]; read-out: Ki) [µM]
CC1=C(CC(=O)O)c2cc(F)ccc2/C1=C\c1ccc([S+](C)[O-])cc1 (configuration not stated)	Not Active	Not Active	Not Active	Not Active	Not Active	Not Active	Not Active	Not Active	Not Active	Not Active	Not Active	Not Active			
N[C@H](CSC(=S)NCc1ccccc1)C(=O)O	Not Active	Not Active	Not Active	Not Active	Not Active	Not Active	Not Active	Not Active	Not Active	Not Active	Not Active	Not Active	Not Active		
Clc1ccc2c(c1)C(N1CCNCC1)=Nc1ccccc1O2 [AMOXAPINE]			Not Active				Not Active	Not Active	Not Active			Not Active	Not Active		
COc1cc2c(c(OC)c1OC)-c1ccc(OC)c(=O)cc1[C@@H](NC(C)=O)CC2 [COLCHICINE]			Not Active			Not Active	Not Active	Not Active	Not Active	Not Active	Not Active	Not Active	Not Active		
CN1CCC(=C2c3ccccc3C=Cc3ccccc32)CC1 [CYPROHEPTADINE]			Not Active				Not Active	Not Active	Not Active	Not Active	Not Active	Not Active	Not Active		
CC/C(=C(/CC)c1ccc(O)cc1)c1ccc(O)cc1 [DIETHYLSTILBESTROL]			Not Active			Not Active	Not Active	Not Active	Not Active	Not Active	Not Active				
CC(=O)N1CCN(c2ccc(OCC3COC(Cn4ccnc4)(c4ccc(Cl)cc4Cl)O3)cc2)CC1 (configuration not stated) [KETOCONAZOLE]			Not Active	Not Active	Not Active		Not Active	Not Active	Not Active			Not Active	Not Active	32	28.5
C=CCN1CC[C@]23c4c5ccc(O)c4O[C@H]2C(=O)CC[C@@]3(O)[C@H]1C5 [NALOXONE]			Not Active			Not Active	Not Active								
COCCOC(=O)C1=C(C)NC(C)=C(C(=O)OC(C)C)C1c1cccc([N+](=O)[O-])c1 (configuration not stated) [NIMODIPINE]			Not Active	Not Active	Not Active	Not Active	Not Active					Not Active	Not Active	0.00209	0.00186
